Experimental data taken from patent US10286063B2 (priority 2015, dated 2019).
“Also recorded” adds a separate entry of the source.

What follows are sequences tested on PBMC.
Assay type: cell-based, human

Sequence	% Inhibition by HLA-DR blocking Ab	Effect of blocking HLA-DR on peptide-induced T cell response (in words)
AANIIGILHLILWILDRL [Peptide H7N9-10]	68%	only partially inhibited
AVKLYKKLKREMTFHGA [Peptide H7N9-9]	100%	–
DKLYERVKRQLRENAEED [Peptide H7N9-8]	89%	only partially inhibited
IVYWKQWLSLKNLTQ [Peptide H7N9-14A]	100%	–
KGILGFVFTLTVPSERGLQ [Peptide H7N9-3]	97%	only partially inhibited
PKYVKSNRLVLATG [IAV-4, reference compound]	96%	only partially inhibited
PKYVKSTKLRLATG [IAV-1, reference compound]	100%	–
PRYVKQNTLKLATG [IAV-3, reference compound]	78%	only partially inhibited
PRYVKQRSLLLATG [Peptide H7N9-13]	100%	–
PRYVKQSTLKLATG [IAV-2, reference compound]	73%	only partially inhibited
QITFMQALQLLLEVE [Peptide H7N9-12]	100%	–
QPEWFRNVLSIAPIMFSNK [Peptide H7N9-4]	100%	–
RIDFHWLMLNPNDTVTFS [Peptide H7N9-1]	46%	only partially inhibited
SRKLLLIVQALRDNLEPG [Peptide H7N9-11]	increased response	the response increased in the presence of the blocking antibody; also recorded: response was absent except when HLA-DR was blocked
YAEMKWLLSNTDNAAFPQ [Peptide H7N9-2]	100%	–

These sequences were tested on Normal subject PBMC.
Assay type: cell-based, human

Sequence	suppression of T cell response to pool of H7N9 ICS peptides on co-incubation	suppression of T cell responses to HA peptides from circulating IAV strains
AVKLYKKLKREMTFHGA [Peptide H7N9-9]	did not suppress T cell responses to the pool of H7N9 epitopes	–
IVYWKQWLSLKNLTQ [Peptide H7N9-14A]	–	Reduced responses to the pool of IAV peptides (1-4)
PRYVKQRSLLLATG [Peptide H7N9-13]	significantly suppressed T cell response to the pooled peptides; also recorded: significantly decreased	significantly suppressed T cell response to IAV-3; also recorded: Reduced responses to the pool of IAV peptides (1-4); also recorded: able to suppress responses to other immunodominant HA peptides from circulating IAV strains
WKQWLSLKNTLTQGSL [Peptide H7N9-14B]	–	Reduced responses to the pool of IAV peptides (1-4)
